{"source": "patent US20020160058A1", "about": "“Antialopecia agent” (priority 1996, published 2002)", "origin": "cited, not measured here", "test_system": "alopecia induced by adriamycin", "details": "reported", "data": [{"substance": "tocopherol", "values": [{"measurement": "effect on alopecia induced by adriamycin", "setting": "oral administration", "value": "preventive effect"}, {"measurement": "effect on alopecia induced by the combined use of adriamycin with other anticancer agents", "value": "no effect"}]}]}
